Results from patent publication US11254640B2, “N-substituted indoles and other heterocycles for treating brain disorders” (The Regents of the University of California, priority 2019, dated 2022).
Read-outs that look alike come from different tables or passages of the source.

Key:
Assay type in all cases: cell-based
[1] = target: T1, 5HT2A (Homo sapiens, UniProt P28223); assay: Calcium flux assay (Calcium secondary messenger pathway); details: agonist mode
T1 construct: expressed in transfected cells
T1 sequence (P28223 whole entry): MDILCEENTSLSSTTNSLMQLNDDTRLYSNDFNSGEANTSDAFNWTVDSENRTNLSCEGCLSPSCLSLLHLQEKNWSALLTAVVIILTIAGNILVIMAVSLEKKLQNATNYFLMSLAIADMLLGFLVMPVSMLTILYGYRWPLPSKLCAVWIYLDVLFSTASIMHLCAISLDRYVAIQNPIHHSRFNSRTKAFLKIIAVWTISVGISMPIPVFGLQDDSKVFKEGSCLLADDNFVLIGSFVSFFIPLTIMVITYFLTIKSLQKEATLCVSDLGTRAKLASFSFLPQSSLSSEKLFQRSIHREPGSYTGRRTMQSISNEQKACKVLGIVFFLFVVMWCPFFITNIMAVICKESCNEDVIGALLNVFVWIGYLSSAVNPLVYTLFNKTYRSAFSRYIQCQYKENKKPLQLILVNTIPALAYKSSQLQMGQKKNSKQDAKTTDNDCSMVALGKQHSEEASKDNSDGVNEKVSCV
Text: Calcium Flux Assay. Calcium Secondary Messenger Pathway. The Calcium No Wash^PLUS assay monitors the activation of a GPCR (e.g., 5HT2A) via Gq secondary messenger signaling in a live cell, non-imaging assay format. Calcium mobilization in PathHunter® cell lines or other cell lines stably expressing Gq-coupled GPCRs (e.g., 5HT2A) is monitored using a calcium-sensitive dye that is loaded into cells. GPCR (e.g., 5HT2A) activation by a compound results in the release of calcium from intracellular stores and an increase in dye fluorescence that is measured in real-time. In some embodiments, the ability of a compound of the present invention to modulate 5-HT2A function is determined using a calcium flux assay. In some embodiments, a compound of the present invention activates a calcium flux assay.
Calcium Secondary Messenger Pathway. Cell lines were expanded from freezer stocks according to standard procedures. Cells were seeded in a total volume of 20 μL into black-walled, clear-bottom, Poly-D-lysine coated 384-well microplates and incubated at 37° C. for the appropriate time prior to testing. Assays were performed in 1× Dye Loading Buffer consisting of 1× Dye, 1× Additive A and 2.5 mM Probenecid in HBSS/20 mM Hepes. Probenicid was prepared fresh. Cells were loaded with dye prior to testing. Media was aspirated from cells and replaced with 20 μL Dye Loading Buffer. Cells were incubated for 30-60 minutes at 37° C.
For agonist determination, cells were incubated with sample to induce response. After dye loading, cells were removed from the incubator and 10 μL HBSS/20 mM Hepes was added. 3× vehicle was included in the buffer when performing agonist dose curves to define the EC80 for subsequent antagonist assays. Cells were incubated for 30 minutes at room temperature in the dark to equilibrate plate temperature. Intermediate dilution of sample stocks was performed to generate 4× sample in assay buffer. Compound agonist activity was measured on a FLIPR Tetra (MDS). Calcium mobilization was monitored for 2 minutes and 10 μL 4× sample in HBSS/20 mM Hepes was added to the cells 5 seconds into the assay.
Compound activity was analyzed using CBIS data analysis suite (ChemInnovation, CA). For agonist mode assays, percentage activity is calculated using the following formula: % Activity=100%×(mean RFU of test sample−mean RFU of vehicle control)/(mean MAX RFU control ligand−mean RFU of vehicle control).

[2] = test system: 5HT2A sensor; assay: 5HT2A sensor assay, antagonist mode (sLight1.3s HEK293T stable line); details: relative to 5-HT at 100 nM; for 5HT2A Antagonist mean @ 100 nM (%): 100 nM compound; for 5HT2A Antagonist mean @ 10 μM (%): 10 μM compound; for 5HT2A Antagonist mean @ 100 μM (%): 100 μM compound
Protocol: In some embodiments, the 5HT2A sensor assay is in an antagonist mode.
(§1) 5HT2A Sensor Assays. HEK293T (ATCC) 5HT2A sensor stable line (sLight1.3s) was generated via lentiviral transduction of HIV-EF1α-sLight1.3 and propagated from a single colony. Lentivirus was produced using 2nd generation lentiviral plasmids pHIV-EF1α-sLight1.3, pHCMV-G, and pCMV-deltaR8.2.
(§2) For the screening of the 41 compounds, sLight1.3s cells were plated in 96-well plates at a density of 40000 24-hours prior to imaging. On the day of imaging, compounds solubilized in DMSO were diluted from the 100 mM stock solution to working concentrations of 1 mM, 100 μM and 1 μM with a DMSO concentration of 1%. Immediately prior to imaging, cells growing in DMEM (Gibco) were washed 2× with HBSS (Gibco) and in agonist mode 180 μL of HBSS or in antagonist mode 160 μL of HBSS was added to each well after the final wash. For agonist mode, images were taken before and after the addition of the 20 μL compound working solution into the wells containing 180 μL HBSS. This produced final compound concentrations of 100 μM, 10 μM and 100 nM with a DMSO concentration of 0.1%. For antagonist mode, images were taken before and after addition of 20 μL of 900 nM 5-HT and again after 20 μL of the compound working solutions to produce final concentrations of 100 nM for 5HT and 100 μM, 10 μM and 100 nM for the compounds with a DMSO concentration of 0.1%. Each compound was tested in triplicates (3 wells) for each concentration (100 μM, 10 μM and 100 nM). Additionally, within each plate, 100 nM 5HT and 0.1% DMSO controls were also imaged.
(§3) Imaging was performed using the Leica DMi8 inverted microscope with a 40× objective using the FITC preset with an excitation of 460 nm and emission of 512-542 nm. For each well, the cellular membrane where the 5HT2A sensor is targeted was autofocused using the adaptive focus controls and 5 images from different regions within the well were taken with each image processed from a 2×2 binning.
(§4) For data processing, the membranes from each image was segmented and analyzed using a custom algorithm written in MATLAB producing a single raw fluorescence intensity value. For each well the 5 raw fluorescence intensity values generated from the 5 images were averaged and the change in fluorescence intensity (dFF) was calculated as: dFF=(Fsat−Fapo)/Fapo
(§5) For both agonist and antagonist modes, the fluorescence intensity values before compound addition in HBSS only were used as the Fapo values while the fluorescence intensity values after compound addition were used as the Fsat values.
(§6) For agonist mode, data are as percent activation relative to 5HT, where 0 is the average of the DMSO wells and 100 is the average of the 100 uM 5HT wells. For antagonist mode, the inactivation score was calculated as: Inactivation score=(dFFF(Compound+5HT)−dFF(5HT))/dFF(5HT)

[3] = test system: 5HT2A sensor; assay: 5HT2A sensor assay, agonist mode (sLight1.3s HEK293T stable line); details: percent relative to 5-HT at 100 uM; for 5HT2A Agonist mean @ 100 nM (%): 100 nM compound; for 5HT2A Agonist mean @ 10 μM (%): 10 μM compound; for 5HT2A Agonist mean @ 100 μM (%): 100 μM compound
Protocol: In some embodiments, hallucinogenic potential of a compound of the present invention is determined in vitro. In some embodiments, hallucinogenic potential of a compound of the present invention is determined using a 5HT2A sensor assay. In some embodiments, the 5HT2A sensor assay is in an agonist mode or an antagonist mode. In some embodiments, the 5HT2A sensor assay is in an agonist mode.
as §1, §2, §3, §4, §5, §6

[4] = test system: rat cortical neurons; assay: Neurite outgrowth assay; details: Cortical neurone, 1 hour treatment at DIV 4, analysed DIV 7, fold vs DMSO control
Text: Neurite outgrowth assay. Changes in the pattern of neurite outgrowth have been implicated in neurodegenerative disorders as well as traumatic injuries. The discovery of new compounds that can positively affect neuritogenesis are important for developing new therapeutics for neurological diseases. Measurement of neurite outgrowth of rat cortical neurons using an automated image-based assay was used to determine the neuroplastic effects of the compounds of the present invention. In some embodiments, a compound of the present invention increases the pattern of neurite outgrowth. In some embodiments, a compound of the present invention increases neurite average length compared to a control. In some embodiments, a compound of the present invention increases neurite branch points compared to a control. In some embodiments, a compound of the present invention increases neurite average length and neurite branch points compared to a control.
Neurite Outgrowth Assay. Rat cortical neurons (20,000 cells/well) were freshly isolated from embryonic day 18 rats and cultured in Neurobasal Medium (+B27). The cultured cells were plated in 96 well-plates (avoiding external wells). At DIV 4, the neurons were treated with compound or control (10 μM) for 1 hour followed by complete washout of the compound. At DIV 7, the neurons were analyzed. The experiments were performed in triplicate. Neurite outgrowth was measured analyzing the following parameters: Number of Cell Bodies, total neurite length (pixels), Root Count, Segments, Extremities Count and node points. Changes in the pattern of neurite outgrowth of the neurons were analyzed by immunocytochemistry against β-III-tubulin. Pictures were acquired by the CellInsight CX7 from Thermo Fisher and analyzed using its software. Results generated in the equipment were maximum neurite length, extremity count, root count, dendrite branch points, and total neurite length. The results were compared to DMSO control, representing the fold-change in neuronal outgrowth.

[5] = read-out: Neurite Average Length @ 10 μM
[6] = read-out: Neurite Branch Points: @ 10 μM

Compound | EC50 [1] | 5HT2A Antagonist mean @ 100 nM (%) [2] | 5HT2A Antagonist mean @ 10 μM (%) [2] | 5HT2A Antagonist mean @ 100 μM (%) [2] | 5HT2A Agonist mean @ 100 nM (%) [3] | 5HT2A Agonist mean @ 10 μM (%) [3] | 5HT2A Agonist mean @ 100 μM (%) [3] | fold induction at 10 µM [4, 5] | fold induction at 10 µM [4, 6]
Cc1cc2cc(F)ccc2n1C[C@@H](C)N(C)C [Example 73, (R)-1-(5-fluoro-2-methyl-1H-indol-1-yl)-N,N-dimethylpropan-2-amine] | > 10 µM | B (inhibits 5HT response by 75% to 100%) | B (inhibits 5HT response by 75% to 100%) | A (inhibits 5HT response by >100%) | B (does not activate 5HT2A sensor assay in agonist mode) | B (does not activate 5HT2A sensor assay in agonist mode) | A (activates 5HT2A sensor assay in agonist mode) | 1.5 to 3 | 1.5 to 3
COc1cc(C)c2c(ccn2C[C@@H](C)N(C)C)c1 [Example 65, (R)-1-(5-methoxy-7-methyl-1H-indol-1-yl)-N,N-dimethylpropan-2-amine] | > 10 µM | C (inhibits 5HT response by <75%) | A (inhibits 5HT response by >100%) | A (inhibits 5HT response by >100%) | B (does not activate 5HT2A sensor assay in agonist mode) | B (does not activate 5HT2A sensor assay in agonist mode) | B (does not activate 5HT2A sensor assay in agonist mode) | 1.5 to 3 | 1.5 to 3
Clc1ccc2c(ccn2CCN2CCCC2)c1 [Example 47, 5-chloro-1-(2-(pyrrolidin-1-yl)ethyl)-1H-indole] | < 10 µM | A (inhibits 5HT response by >100%) | A (inhibits 5HT response by >100%) | A (inhibits 5HT response by >100%) | B (does not activate 5HT2A sensor assay in agonist mode) | B (does not activate 5HT2A sensor assay in agonist mode) | B (does not activate 5HT2A sensor assay in agonist mode) | 1.5 to 3 | > 3
FC(F)(F)Oc1ccc2c(ccn2CCN2CCCC2)c1 [Example 50, 1-(2-(pyrrolidin-1-yl)ethyl)-5-(trifluoromethoxy)-1H-indole] | > 10 µM | A (inhibits 5HT response by >100%) | B (inhibits 5HT response by 75% to 100%) | A (inhibits 5HT response by >100%) | B (does not activate 5HT2A sensor assay in agonist mode) | B (does not activate 5HT2A sensor assay in agonist mode) | A (activates 5HT2A sensor assay in agonist mode) | 1.5 to 3 | 1.5 to 3
Cc1cn(C[C@@H](C)N(C)C)c2ccc(F)cc12 [Example 74, (R)-1-(5-fluoro-3-methyl-1H-indol-1-yl)-N,N-dimethylpropan-2-amine] | > 10 µM | A (inhibits 5HT response by >100%) | A (inhibits 5HT response by >100%) | B (inhibits 5HT response by 75% to 100%) | B (does not activate 5HT2A sensor assay in agonist mode) | B (does not activate 5HT2A sensor assay in agonist mode) | B (does not activate 5HT2A sensor assay in agonist mode) | 1.5 to 3 | 1.5 to 3
CC[C@H](Cn1ccc2cc(OC)ccc21)N(C)C [Example 75, (R)-1-(5-methoxy-1H-indol-1-yl)-N,N-dimethylbutan-2-amine] | > 10 µM | A (inhibits 5HT response by >100%) | A (inhibits 5HT response by >100%) | A (inhibits 5HT response by >100%) | B (does not activate 5HT2A sensor assay in agonist mode) | B (does not activate 5HT2A sensor assay in agonist mode) | B (does not activate 5HT2A sensor assay in agonist mode) | < 1.5 | < 1.5
COc1cc2c(ccn2C[C@@H](C)N(C)C)cc1F [Example 70, (R)-1-(5-fluoro-6-methoxy-1H-indol-1-yl)-N,N-dimethylpropan-2-amine] | < 10 µM | B (inhibits 5HT response by 75% to 100%) | B (inhibits 5HT response by 75% to 100%) | A (inhibits 5HT response by >100%) | B (does not activate 5HT2A sensor assay in agonist mode) | B (does not activate 5HT2A sensor assay in agonist mode) | B (does not activate 5HT2A sensor assay in agonist mode) | 1.5 to 3 | 1.5 to 3
